Values joined by “and” are separate entries in the source; they are usually repeats but may differ in a detail not shown here. Equal values may be shown once. Toxic doses and inconclusive results are not listed. Rule as the data show it: active = T/C of 150% or more; inactive = T/C below 125%.
Test system: L1210 leukemia ip in BDF1 mice, survival T/C
Assay: NCI In Vivo Anticancer Drug Screen. Data for tumor model L1210 Leukemia (intraperitoneal) in B6D2F1 (BDF1) mice
Conditions: endpoint: mean survival time, higher = longer survival
Method in brief: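 Ratio derived from survival: compound-dosed mice over vehicle-dosed mice, all bearing a transplantable tumor.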

[1] = dose: 100.0 mg/kg/injection, schedule: Q04DX003 (ip), vehicle: Klucel (hydroxypropylcellulose) (HPC)
[2] = dose: 200.0 mg/kg/injection, schedule: Q04DX003 (ip), vehicle: Klucel (hydroxypropylcellulose) (HPC)
[3] = dose: 100.0 mg/kg/injection, schedule: Q01DX001 (ip), vehicle: Klucel (hydroxypropylcellulose) (HPC)
[4] = dose: 100.0 mg/kg/injection, schedule: Q01DX009 (ip), vehicle: Klucel (hydroxypropylcellulose) (HPC)
[5] = dose: 200.0 mg/kg/injection, schedule: Q01DX001 (ip), vehicle: Klucel (hydroxypropylcellulose) (HPC)
[6] = dose: 200.0 mg/kg/injection, schedule: Q01DX009 (ip), vehicle: Klucel (hydroxypropylcellulose) (HPC)
[7] = dose: 400.0 mg/kg/injection, schedule: Q01DX001 (ip), vehicle: Klucel (hydroxypropylcellulose) (HPC)
[8] = dose: 400.0 mg/kg/injection, schedule: Q01DX009 (ip), vehicle: Klucel (hydroxypropylcellulose) (HPC)
[9] = dose: 400.0 mg/kg/injection, schedule: Q04DX003 (ip), vehicle: Klucel (hydroxypropylcellulose) (HPC)
[10] = dose: 50.0 mg/kg/injection, schedule: Q01DX001 (ip), vehicle: saline
[11] = dose: 100.0 mg/kg/injection, schedule: Q01DX001 (ip), vehicle: saline
[12] = dose: 100.0 mg/kg/injection, schedule: Q01DX001 (ip), vehicle: carboxymethylcellulose (CMC)
[13] = dose: 200.0 mg/kg/injection, schedule: Q01DX001 (ip), vehicle: carboxymethylcellulose (CMC)
[14] = dose: 400.0 mg/kg/injection, schedule: Q01DX001 (ip), vehicle: carboxymethylcellulose (CMC)

Measured: T/C

Clc1ccc(N2CCN(CCCN3CCN(c4cccc(Cl)c4)CC3)CC2)cc1
inactive: [1] 88 % of control | [2] 91 % of control

C=COCCN1CCN(CCCN2c3ccccc3Sc3ccc(C(F)(F)F)cc32)CC1
inactive: dose: 3.13 mg/kg/injection, schedule: Q04DX003 (ip), vehicle: saline 102 % of control | dose: 6.25 mg/kg/injection, schedule: Q04DX003 (ip), vehicle: saline 102 % of control | dose: 12.5 mg/kg/injection, schedule: Q04DX003 (ip), vehicle: saline 107 % of control

Cc1ccc([N+](=O)[O-])cc1NC(=O)N(C)Cc1ccc(Cl)cc1
inactive: [3] 90 % of control | [4] 89 % of control and 90 % of control | [1] 102 % of control | [5] 98 % of control | [6] 94 % of control and 97 % of control | [2] 98 % of control | [7] 93 % of control | [8] 93 % of control and 90 % of control | [9] 100 % of control and 122 % of control

COC(=O)C1(C(=O)OC)C2CCCCC21 (centres undefined)
inactive: [3] 90 % of control | [1] 96 % of control | [5] 103 % of control | [2] 104 % of control | [7] 98 % of control | [9] 98 % of control

O=C(CCCC(=O)N/N=C/c1c(Cl)cccc1Cl)N/N=C\c1c(Cl)cccc1Cl
inactive: [10] 100 % of control | [11] 106 % of control | dose: 200.0 mg/kg/injection, schedule: Q01DX001 (ip), vehicle: saline 100 % of control | dose: 400.0 mg/kg/injection, schedule: Q01DX001 (ip), vehicle: saline 103 % of control

CCCCCCP(=O)(CCCCCC)C1CCCCC1
inactive: dose: 25.0 mg/kg/injection, schedule: Q01DX001 (ip), vehicle: Klucel (hydroxypropylcellulose) (HPC) 94 % of control | dose: 50.0 mg/kg/injection, schedule: Q01DX001 (ip), vehicle: Klucel (hydroxypropylcellulose) (HPC) 88 % of control | [3] 102 % of control | dose: 200.0 mg/kg/injection, schedule: Q01DX001 (ip), vehicle: saline with Tween-80 97 % of control

N#Cc1ccccc1NC(=O)N(CCCl)N=O
inactive: dose: 2.0 mg/kg/injection, schedule: Q01DX001 (ip), vehicle: carboxymethylcellulose (CMC) 119 % of control | dose: 13.0 mg/kg/injection, schedule: Q01DX009 (ip), vehicle: carboxymethylcellulose (CMC) 124 % of control | dose: 13.3 mg/kg/injection, schedule: Q01DX001 (ip), vehicle: carboxymethylcellulose (CMC) 120 % of control | dose: 20.0 mg/kg/injection, schedule: Q01DX009 (ip), vehicle: carboxymethylcellulose (CMC) 105 % of control | dose: 30.0 mg/kg/injection, schedule: Q01DX009 (ip), vehicle: carboxymethylcellulose (CMC) 108 % of control

Cc1ccc(-c2cc(-c3ccccc3)n(-c3ccccc3)n2)cc1
inactive: dose: 100.0 mg/kg/injection, schedule: Q01DX009 (ip), vehicle: other 103 % of control | dose: 200.0 mg/kg/injection, schedule: Q01DX009 (ip), vehicle: other 96 % of control | dose: 400.0 mg/kg/injection, schedule: Q01DX009 (ip), vehicle: other 95 % of control

Cc1cc(Cl)c(Cl)cc1NC(=O)Nc1cccc(C(F)(F)F)c1
inactive: dose: 100.0 mg/kg/injection, schedule: Q01DX009 (ip), vehicle: carboxymethylcellulose (CMC) 93 % of control | dose: 200.0 mg/kg/injection, schedule: Q01DX009 (ip), vehicle: carboxymethylcellulose (CMC) 91 % of control | dose: 400.0 mg/kg/injection, schedule: Q01DX009 (ip), vehicle: carboxymethylcellulose (CMC) 102 % of control

NNc1ccccc1C(=O)O
inactive: dose: 50.0 mg/kg/injection, schedule: Q01DX001 (ip), vehicle: carboxymethylcellulose (CMC) 94 % of control | [12] 94 % of control | [13] 105 % of control | [14] 94 % of control

CCCCCCCCCCCCCCCCCCOC(=O)Cc1ccc(N(CCCl)CCCl)cc1
inactive: [4] 105 % of control | [1] 100 % of control | [6] 110 % of control | [2] 109 % of control | [8] 115 % of control | [9] 105 % of control

NCCCC(=O)NCCCCCCNCCCCCCNC(=O)CCCN
inactive: [10] 98 % of control | [11] 104 % of control

c1cc[c]([Ge]([c]2ccccc2)([c]2ccccc2)[c]2cc[c]([Ge]([c]3ccccc3)([c]3ccccc3)[c]3ccccc3)cc2)cc1
inactive: dose: 100.0 mg/kg/injection, schedule: Q04DX002 (ip), vehicle: saline with Tween-80 97 % of control | dose: 200.0 mg/kg/injection, schedule: Q04DX002 (ip), vehicle: saline with Tween-80 87 % of control | dose: 400.0 mg/kg/injection, schedule: Q04DX002 (ip), vehicle: saline with Tween-80 91 % of control

[O-][n+]1ccccc1Br
inactive: dose: 50.0 mg/kg/injection, schedule: Q01DX009 (ip), vehicle: water 104 % of control | dose: 100.0 mg/kg/injection, schedule: Q01DX009 (ip), vehicle: water 98 % of control | dose: 100.0 mg/kg/injection, schedule: Q04DX003 (ip), vehicle: water 95 % of control | dose: 150.0 mg/kg/injection, schedule: Q01DX009 (ip), vehicle: water 95 % of control | dose: 200.0 mg/kg/injection, schedule: Q04DX003 (ip), vehicle: water 115 % of control

O=S(=O)(Nc1ccc(NS(=O)(=O)c2ccccc2)c(S(=O)(=O)c2ccccc2)c1)c1ccccc1
inactive: dose: 100.0 mg/kg/injection, schedule: Q01DX009 (ip), vehicle: saline with Tween-80 100 % of control | dose: 200.0 mg/kg/injection, schedule: Q01DX009 (ip), vehicle: saline with Tween-80 98 % of control | dose: 400.0 mg/kg/injection, schedule: Q01DX009 (ip), vehicle: saline with Tween-80 94 % of control

O=C(c1ccc(C(=O)Nc2cccc3ccccc23)c(C(=O)O)c1)c1ccc(C(=O)Nc2cccc3ccccc23)c(C(=O)O)c1
inactive: dose: 100.0 mg/kg/injection, schedule: Q04DX002 (ip), vehicle: Klucel (hydroxypropylcellulose) (HPC) 97 % of control | dose: 200.0 mg/kg/injection, schedule: Q04DX002 (ip), vehicle: Klucel (hydroxypropylcellulose) (HPC) 94 % of control | dose: 400.0 mg/kg/injection, schedule: Q04DX002 (ip), vehicle: Klucel (hydroxypropylcellulose) (HPC) 94 % of control

COc1ccccc1-n1c(O)c(N=Nc2ccc(C)cc2)c(=O)n(-c2ccccc2)c1=S
inactive: [3] 103 % of control | [5] 97 % of control | [7] 91 % of control

Cc1ccc([N+](=O)[O-])cc1NC(=O)c1ccccc1
inactive: [12] 93 % of control | [13] 96 % of control | [14] 93 % of control

CCCCCCCCCCCCCCCC(=O)Nc1ccc(C(=O)O)cc1
inactive: [1] 95 % of control | [2] 94 % of control | [9] 94 % of control

Reference: PubChem BioAssay AID248 (DTP/NCI, 2004)
